Source: US12617794B2, “GABAA positive allosteric modulator compounds, methods of making, and uses thereof” (NEUROCYCLE THERAPEUTICS, INC., priority 2019, dated 2026)
Like-named read-outs stand apart in the source and are kept apart here.

Assays:
Format in all cases: physicochemical
[1] = One week accelerated stability testing (Example 3)
Description: The stability of Phosphate Polymorphic Form A and Free Base Polymorphic Form A were evaluated under accelerated conditions.

[2] = Solubility in aqueous buffers, SGF, FaSSIF and FeSSIF (Example 15); conditions: for solubility thermodynamic: 20 °C, thermodynamic from solid, read-out: Measured Conc.; for solubility thermodynamic / Measured Conc. (μg/mL): ~20-25° C., ~24 hours
Description: About 2 mg of test article was added to a 1.5 mL vials which contained ˜1.0 mL of one medium listed in Table 7 and Table 8, which was then sealed. The mixtures were stirred at ˜20-25° C. for ˜24 hours. After that, the mixture was filtered by 0.45 μm filter membrane and then the supernatant was analyzed by HPLC.

[3] = Intrinsic dissolution rate in SGF (Example 16); conditions: 37° C., 100 rpm, linear scope within 2 to 120 min
Description: About 100 mg of Free Base Polymorphic Form A or Phosphate Polymorphic Form A was weighed into the intrinsic dissolution apparatus and the sample compressed for 1 minute with a compression force of ˜4 MPa to form a compacted pellet within the stainless-steel die. All loose powder was removed from the surface of the die. The intrinsic dissolution shaft was connected with the stainless-steel die and tightened so only one surface of the pellet was exposed (surface area=0.496 cm^2). The shaft in the spindle was adjusted to ensure the exposed surface of the compacted tablet was ˜3.8 cm from the bottom of the vessel when lowered. The temperature of chamber water was set at 37° C.±0.5° C., the shaft rotation at 100 rpm and the sampling time points at 2, 5, 10, 15, 30, 45, 60, 120 min. SGF was used as dissolution medium (900 mL). At each time point, solution samples were filtered, and the supernatant was analyzed by HPLC-UV.

[4] = Slurry and stability study of phosphate (30.4, Example 35); conditions: IPAC, EA
Source text: The suspensions were filtered and characterized by XRPD.

Competitive slurry study = experiment: Competitive slurry study
Source text: Determining which polymorphic form is more thermodynamically stable may be experimentally determined by conventional methods known in the art. For example, a competitive slurry experiment in which a 1:1 mixture of polymorphic forms is stirred for a period of time in a solvent in which both polymorphic forms are partly soluble may be conducted. It is accepted by those skilled in the art that if the 1:1 mixture converts entirely to one polymorphic form, that form that results is more thermodynamically stable of the two, while the other form is metastable.
TPA023B Phosphate of mixed forms was added into specific solvents and stirred at RT or 50° C. for 1 day. The suspensions were filtered and characterized by XRPD.

[5] = Solid-state stability of Phosphate Form A at 40° C./75% RH and 25° C./95% RH (Example 36); conditions: up to two weeks
[6] = Liquid vapor diffusion (Example 61); conditions: RT, 6 days
Source text: After filtration, the filtrate in a small vial was put into a bigger vial containing anti-solvent. The bigger vial was left at RT for days. If precipitation occurred, solid was collected and characterized.
After filtration, the filtrate was transferred into a small vial, which was then placed inside a bigger vial which contained anti-solvent. The bigger vial was left at RT for 6 days. If precipitation occurred, solid was collected and characterized. No new phosphate form was obtained.

[7] = Slow cooling crystallization (Example 64); conditions: slow cooling to RT
Source text: The suspensions were filtered to obtain saturated solution, and it was kept in an oil bath to cool to RT. The solids obtained were characterized.
The suspensions were filtered to obtain a saturated solution, and it was kept in an oil bath which was allowed to cool to RT naturally. Any solids obtained were characterized. […] No new phosphate Form was obtained.

[8] = Polymer induced crystallization (Example 67); conditions: evaporative crystallization at RT, ~10% polymer
Description: Then ˜10% of polymer was added into clear solution. The mixture was evaporated to dryness at RT. The solid was isolated and characterized.
No new phosphate form was obtained.

- Assay (%) ([1]; 40° C./75% RH (open), 1 week): 97.12%
- Purity (%) ([1]; 40° C./75% RH (open), 1 week): 99.02%
- Assay (%) ([1]; 80° C. (open), 1 week): 95.99%
- Purity (%) ([1]; 80° C. (open), 1 week): 98.94%
- Purity (%) ([1]; Initial): 98.91%
- Assay (%) ([1]; Initial, assay criterion 95%-105%): 104.60%
- Assay (%) ([1]; Light, ~50 h): 95.25%
- Purity (%) ([1]; Light, ~50 h): 97.55%
- solubility thermodynamic ([2]; FaSSIF, fassif, FaSSIF): 7.14 µg/mL
- solubility thermodynamic ([2]; FeSSIF, fessif, FeSSIF): 50.7 µg/mL
- solubility thermodynamic ([2]; SGF, simulated gastric fluid, SGF): 3.85 µg/mL
- solubility thermodynamic ([2]; citrate buffer, pH 3, aqueous buffer, pH 3.0 citrate buffer (100 mM), LOQ: 0.1 μg/mL): 0.16 µg/mL
- solubility compared with Free Base Polymorphic Form A ([2]; in SGF, FaSSIF and FeSSIF): higher solubility
- Measured Conc. (μg/mL) ([2]; pH 4.5 citrate buffer (100 mM), LOQ: 0.1 μg/mL): <LOQ
- Measured Conc. (μg/mL) ([2]; pH 7.4 PBS (50 mM), LOQ: 0.1 μg/mL): <LOQ
- Measured Conc. (μg/mL) ([2]; pH 9.0 USP Buffer (50 mM), LOQ: 0.1 μg/mL): <LOQ
- intrinsic dissolution rate [3]: 0.184 mg·cm^−2min^−1
- crystal form after slurry (XRPD) ([4]; 100 mg slurried in 2 mL THF, 2-Me THF, acetone and ACN at RT): remains unchanged
- stability in solvents ([4]; THF, 2-Me-THF, Acetone, MTBE or ACN): stable
- thermodynamic stability among phosphate forms (Competitive slurry study): most thermodynamically stable form
- crystal form after storage ([5]; 25° C./95% RH): remained unchanged
- crystal form after storage ([5]; 40° C./75% RH): remained unchanged
- Result (solid form obtained) ([6]; solvent 2-methyl tetrahydrofuran, anti-solvent Chloroform): Phosphate Form A
- Result (solid form obtained) ([6]; solvent 2-methyl tetrahydrofuran, anti-solvent Methyl cyclohexane): Phosphate Form A
- Result (solid form obtained) ([6]; solvent 2-methyl tetrahydrofuran, anti-solvent xylene): Phosphate Form A
- Result (solid form obtained) ([6]; solvent DMAC, anti-solvent DCM): No solid
- Result (solid form obtained) ([6]; solvent DMAC, anti-solvent EA): No solid
- Result (solid form obtained) ([6]; solvent DMAC, anti-solvent Isopropyl ether): No solid
- Result (solid form obtained) ([6]; solvent Diox, anti-solvent ACN): No solid
- Result (solid form obtained) ([6]; solvent Diox, anti-solvent BAC): Phosphate Form A
- Result (solid form obtained) ([6]; solvent Diox, anti-solvent DCM): Phosphate Form A
- Result (solid form obtained) ([6]; solvent Diox, anti-solvent Heptane): Phosphate Form A
- Result (solid form obtained) ([6]; solvent Diox, anti-solvent Isopropyl ether): Phosphate Form A
- Result (solid form obtained) ([6]; solvent MEK, anti-solvent Cyclohexanone): Phosphate Form A
- Result (solid form obtained) ([6]; solvent MEK, anti-solvent DCM): Phosphate Form A
- Result (solid form obtained) ([6]; solvent MEK, anti-solvent MAC): No solid
- Result (solid form obtained) ([6]; solvent MEK, anti-solvent MTBE): No solid
- Result (solid form obtained) ([6]; solvent MEK, anti-solvent Trichloromethane): Phosphate Form A
- Result (solid form obtained) ([6]; solvent NMP, anti-solvent Chloroform): No solid
- Result (solid form obtained) ([6]; solvent NMP, anti-solvent Isopropyl ether): No solid
- Result (solid form obtained) ([6]; solvent NMP, anti-solvent MEK): No solid
- Result (solid form obtained) ([6]; solvent THF, anti-solvent ACN): No solid
- Result (solid form obtained) ([6]; solvent THF, anti-solvent EA): Phosphate Form A
- Result (solid form obtained) ([6]; solvent THF, anti-solvent N-pentane): Phosphate Form A
- Result (solid form obtained) ([6]; solvent THF, anti-solvent Toluene): Phosphate Form A
- Result (solid form obtained) ([6]; solvent THF, anti-solvent Trichloromethane): No solid
- Result (solid form obtained) ([7]; solvent 2-butanone): Phosphate Form A
- Result (solid form obtained) ([7]; solvent 2-methyl tetrahydrofuran): No solid
- Result (solid form obtained) ([7]; solvent ACN): Phosphate Form A
- Result (solid form obtained) ([7]; solvent Anisole): No solid
- Result (solid form obtained) ([7]; solvent BAC): Phosphate Form A
- Result (solid form obtained) ([7]; solvent Butanol): Free Base Form E
- Result (solid form obtained) ([7]; solvent EA): No solid
- Result (solid form obtained) ([7]; solvent Isoamyl alcohol): Free Base Form E
- Result (solid form obtained) ([7]; solvent MAC): No solid
- Result (solid form obtained) ([7]; solvent THF): No solid
- Result (solid form obtained) ([8]; solvent MEK, polymer EC (Ethyl cellulose)): Phosphate Form A
- Result (solid form obtained) ([8]; solvent MEK, polymer PAA Poly(acrylic acid)): Phosphate Form A
- Result (solid form obtained) ([8]; solvent MEK, polymer PEG4000, listed as Phosphate Form A): Free Base Form F
- Result (solid form obtained) ([8]; solvent MEK, polymer PVP-K30 (Polyvinyl pyrrolidone), listed as Phosphate Form A): Free Base Form F
- Result (solid form obtained) ([8]; solvent THF, polymer EC): Phosphate Form A
- Result (solid form obtained) ([8]; solvent THF, polymer PAA Poly): Phosphate Form A
- Result (solid form obtained) ([8]; solvent THF, polymer PEG4000): Phosphate Form A
- Result (solid form obtained) ([8]; solvent THF, polymer PVP-K30): Phosphate Form 1A
Structure (SMILES): CC(C)(O)c1cnn2c(-c3ccc(F)c(-c4c(F)cccc4C#N)c3)cnc2n1 [Phosphate Polymorphic Form A, 2′,6-difluoro-5′-[3-(1-hydroxy-1-methylethyl)-imidazo[1,2-b][1,2,4]triazin-7-yl]biphenyl-2-carbonitrile]
